# Source: a melting point compilation (Tetko et al.; mined from patent text by program, amines drawn as free bases though some values may be those of a salt)
row,SMILES,melting point [°C]
1,CC1OC(Cn2cncn2)(c2ccc(Cl)cc2Cl)C1(C)C (configuration not stated),118 to 125
2,CCCCCS(=O)(=O)NC(=O)CCc1cc(OCCCC)nn1Cc1ccc(C(F)(F)F)cc1Cl,131 to 133
3,CC(C)CC(C(=O)OCc1ccc([N+](=O)[O-])cc1)N(C(=O)OC(C)(C)C)C1CC1 (configuration not stated),139 to 143
4,CC(=O)C(Cc1nsc2ccc(-n3c(=O)cc(C(F)(F)F)n(C)c3=O)cc12)C(=O)OC(C)(C)C (configuration not stated),76 to 78
5,CC(C)C[C@H]1CNC[C@H]1C(=O)O (relative stereo),260 to 262
6,COC(=O)c1cc(NC(=O)c2cc(Br)ccc2Cl)ccc1-n1nc(C(F)(F)F)cc1C(F)(F)F,75 to 76
7,CCOc1ccc(C2=NC[C@@H](OC(=O)Nc3ccccc3)[C@H](c3ccccc3)O2)cc1 (racemic),80
8,C=C(C)COc1ccc(C(=O)C=Cc2ccc(N(C)C)cc2)c(O)c1,85 to 87
9,OCc1cc(N2CCCCC2)ncn1,70 to 72
10,CCCn1c(=O)cc(-n2nc(-c3c(-c4ccccc4)nn4ccccc34)ccc2=O)n(CC(=O)OC)c1=O,143 to 145
11,CCOC(=O)C(=NOCc1ccc(OCc2nc(-c3ccccc3)oc2C)cc1)c1ccc(OC)cc1,102 to 103
12,COc1cc(C(=O)NC2CC(C)(C)N(C)C(C)(C)C2)ccc1-c1cc2cc(Cl)c(Cl)cc2[nH]1,260
13,O=C(Nc1c(Cl)cc(C(F)(c2cccs2)C(F)(F)F)cc1Cl)c1cccc(NC(=O)c2c(F)cc(F)cc2F)c1F (configuration not stated),190 to 193
14,CCOC(=O)C1=C(N)N=C(OCC)C(C(=O)OCC)C1c1cccc(Cl)c1 (configuration not stated),121
15,NCc1nc2ccccc2[nH]1,81 to 83
16,O=S(=O)(On1nnc2ccccc21)c1cccnc1,98
17,O=C(C(Cl)=CO)c1ccc(Cl)cc1Cl,162
18,Nc1cnc2c(F)c(Cl)c(F)cc2c1,270
19,COc1nscc1[N+](=O)[O-],118 to 122
20,COc1ccc(N2CCN(c3c(C)c(C)c4c(c3C)C(=O)C(C)(C)O4)CC2)cc1C,129 to 131
21,Cc1nn(-c2cccc(C(F)(F)F)c2)c(C)c1CC(=O)O,83 to 85
22,O=C1C(=Cc2ccncc2)CCc2ccccc21,112 to 114
23,CCCc1nc2c(N)nc3ccccc3c2n1CC(C)(C)C(N)=O,219 to 221
24,CNC(=O)Nc1cc2c(s1)CCCC2NC(=O)NC (configuration not stated),233 to 234
25,c1cc2cc(Nc3ncnc4cnc(N5CCOCC5)nc34)ccc2cn1,208 to 210

row,SMILES,melting point [°C]
1,CSCC(NCc1cc(Br)cc(Br)c1N)C(=O)O (configuration not stated),240
2,O=C(O)C(Cc1ccccc1)Oc1ccc(-c2ccc(-c3c(Cc4ccccc4)sc4ccccc34)cc2)cc1Br (configuration not stated),81 to 83
3,Oc1c(C(Nc2ccc(Cl)cn2)c2ccccn2)ccc2cccnc12 (configuration not stated),160 to 162
4,CC(=O)N1CCC(C(=O)N2CC[C@@H](N(C)C(=O)c3ccc(C4CC4)cc3)[C@H](c3ccc(Cl)c(Cl)c3)C2)CC1,129 to 133
5,O=C1c2ccc([N+](=O)[O-])cc2C(=O)N1CCc1ccccc1,142 to 143
6,COc1ccc(-c2[nH]c3ccccc3c(=O)c2Cc2ccncc2)cc1,246 to 248
7,CCC(C)Cc1c(-c2ccc([N+](=O)[O-])cc2Cl)c(C)nc2ncnn12 (configuration not stated),158 to 162
8,CC(Oc1cccc(-c2ccc(Cl)c(C(=O)NCC34CC5CC(CC(C5)C3)C4)c2)c1)C(=O)O (configuration not stated),115 to 120
9,O=C(CNC(=O)c1ccc([N+](=O)[O-])c(I)c1)OCC(Cl)(Cl)Cl,98 to 100
10,COCc1cnc2c([N+](=O)[O-])cc(C)cc2c1Cl,107 to 111
11,COC(=O)c1cc(C)cc(OC)c1C1=C(OC)C(=O)c2c(O)cccc2C1=O,165 to 167
12,CCOC(=O)c1nn(-c2ccc(Cl)cc2)c(=O)c2c(N)scc12,189 to 191
13,COCOc1ccc(CO[Si](C)(C)C(C)(C)C)c2cccc(C)c12,42 to 43
14,O=C1NC(=O)C(Nc2ccc(CCNCC(O)c3cccnc3)cc2)S1 (configuration not stated),46 to 48
15,O=[N+]([O-])c1ccc(F)cc1CCN1CCN(c2nsc3ccccc23)CC1,131
16,CC(C)(C)ONc1ccccc1,67 to 69
17,O=C1NC(=O)C2(N1)C(=O)N(Cc1ccc(Br)cc1F)c1c(C(F)(F)F)cccc12 (configuration not stated),197 to 199
18,CCCCCCCCCCCCCCCCCCCCC(=S)NCCCN(CC)CC,61
19,CC1NC(=O)NN=C1c1ccc(N2CCCC2)cc1 (configuration not stated),276 to 281
20,COC(=O)c1ccc(CNC(=O)C[C@H]2O[C@H](c3cccc(OC)c3OC)c3cc(Cl)ccc3N(CC(C)(C)CO)C2=O)cc1,110 to 112
21,CC1(C)C(C(=O)O)C1C(O)C(F)(Cl)Cl (configuration not stated),142
22,O=C(O)c1csc2c(=O)cc(C(F)(F)F)oc12,249 to 251
23,COc1nc(N)nc2nc(/C=C3/CC3(CO)CO)[nH]c12,188 to 189
24,OC(c1cccc(OCc2ccc3ccccc3n2)c1)(c1nccs1)C(F)(F)F (configuration not stated),177
25,O=C(O)c1c[nH]c(SCc2ccccc2)c1SCc1ccccc1,160 to 162

row,SMILES,melting point [°C]
1,c1ccc(C2OC3(CCNCC3)N3CCCCC23)cc1 (configuration not stated),169 to 171
2,CC1CC(C)(C)C(=O)C=C1Cc1ccc(Cl)cc1 (configuration not stated),76 to 77
3,COc1ccc([N+](=O)[O-])c2c1OCC(C(=O)Nc1ccc(N3CCOCC3)cc1)C2 (configuration not stated),238 to 240
4,CCCc1c(C(=O)C(C)C)c2ccc(C(=O)O)cc2n1Cc1ccccc1C,186 to 188
5,COc1ncnc(N2CCc3ccccc3CC2)c1[N+](=O)[O-],147 to 150
6,Cc1cc2nc3c4cc([N+](=O)[O-])ccc4n(CCN(C)C)c3nc2cc1C,219
7,Cc1c(C)c(N2CCN(c3ccnc(Cl)n3)CC2)c(C)c2c1OC(C)(C)C2,192 to 193
8,Cc1c(C(=O)c2ccccc2)c(NC(=O)CNO)cn1C,140 to 142
9,O=[N+]([O-])c1ccc2nc(-c3ccc4c(c3)OCCO4)ncc2c1,263 to 265
10,O=C(O)c1cn(C2CC2)c2nc(N3Cc4ccc(CO)cc4C3)c(F)cc2c1=O,> 300
11,CCc1nc2c(C)nc(C)cc2n1-c1ccc(CCOC(=O)NS(=O)(=O)c2ccc(C)cc2)cc1,158
12,Clc1ccc2c(N[C@@H]3CCC[C@H](Nc4ccnc5cc(Cl)ccc45)C3)ccnc2c1,> 250
13,CCCCCN(CCC12CC3CC(CC(C3)C1)C2)C(=O)NCCC(C)c1ccncc1 (configuration not stated),93 to 98
14,C1=C(c2nc(-c3ccccc3)no2)CCN(Cc2c[nH]c3ncccc23)C1,207 to 209
15,c1ccc(C2CN3CCN=C3S2)cc1 (configuration not stated),68 to 70
16,OCc1cccc(/C=C/c2nc3cc(F)ccc3s2)n1,179 to 181
17,O=C1Cn2ncnc2-c2cc(F)ccc2N1,232 to 238
18,COc1c(C)c2c(c(OS(=O)(=O)c3ccc(C)cc3)c1CC=C(C)C=O)C(=O)OC2,168 to 173
19,O=C(O)C1CCc2c(c3cc(O)ccc3n2C(=O)c2ccccc2)C1 (configuration not stated),224 to 227
20,CC1(C)CCC(C)(C)c2cc(C(=O)COc3ccc(C(=O)O)cc3)ccc21,168 to 170
21,Nc1c(F)c(Oc2ccc(Cl)c(Cl)c2)nc(C(=O)O)c1Cl,156 to 160
22,O=[N+]([O-])c1ccccc1Cc1n[nH]c(Cl)n1,160 to 163
23,COc1ccc2cccc(C=O)c2c1,61 to 63
24,O=C(O)[C@H]1C[C@@H](CP(=O)(O)O)c2ccccc2N1 (relative stereo),171 to 173
25,Cc1nnc(SCC(=O)C23CC4CC(CC(C4)C2)C3)n1C(C)C,119 to 120

row,SMILES,melting point [°C]
1,Cc1cc(C)nc(N(C(=O)n2cncn2)c2ccccc2)n1,157
2,COCCCNc1cc(C(Sc2ccc(Cl)cc2)c2cc(F)ccc2F)c(Cl)cn1 (configuration not stated),146 to 148
3,COc1ccc2[nH]c(SCc3cc(N4CCOCC4)c(F)cn3)nc2c1,142 to 144
4,Cn1c(-c2ccc(-c3ccccn3)cc2)c(C(=O)N2CCC(OCC(=O)O)CC2)c(=O)n1-c1ccc(C#N)cc1,156 to 159
5,COCCC(=O)N[C@H]1CC[C@H](CCN2CCC(c3cccc4c3CCO4)CC2)CC1,182
6,Cc1cc(OC(F)F)nc(S(C)(=O)=O)n1,86 to 88
7,CCCOc1cc(NC(=O)C[C@H]2O[C@H](c3cccc(OC)c3OC)c3cc(Cl)ccc3N(CC(C)(C)COC(C)=O)C2=O)cc2cc(C(=O)OC)oc12,146 to 147
8,Nc1cccc(CN2CCC(OC(=O)c3ccccc3)CC2)c1,95 to 97
9,N=C(Nc1ccccc1)Nc1ncccc1OCc1ccc(Cl)cc1,173 to 174
10,CCc1nc2c(N)nc3cc(OCc4nc5ccccc5s4)ccc3c2s1,211 to 212
11,O=C1NC(=O)C(=Cc2cccs2)N1,253 to 255
12,COC(=O)/C=C/c1ccc(-c2nc3c(=O)n(CC4CCCCC4)c(=O)n(CC4CCCCC4)c3[nH]2)cc1,> 270
13,CCC(CC)n1nc(-c2ccc(O)cc2O)c2cccc(C(F)(F)F)c21,121 to 122
14,COC(=O)c1c(-c2cccc(F)c2)c2cc(OCc3ccccc3)ccc2c(=O)n1CC(C)C,127 to 128
15,CCc1cc2c(-c3ccccc3Cl)c(N)cnc2s1,87 to 88
16,O=C1c2c(ccc(O)c2O)CC1C(=O)c1c(F)c(F)c(F)c(F)c1F (configuration not stated),114 to 115
17,C#CCN(Cc1ccc2nc(Cl)c(N)cc2c1)c1ccc(C(=O)N[C@@H](CCC(=O)O)C(=O)O)c(F)c1,107 to 110
18,COc1cc(C(=O)c2ncc3ccc(NC(=O)OC(C)(C)C)cn23)ccc1[N+](=O)[O-],200
19,Cc1cc(CCCOc2c(C)cc(-c3noc(C#N)n3)cc2C)on1,93 to 94
20,CCOCn1c(C(OC(C)=O)c2ccccc2)c(C(C)C)c(=O)[nH]c1=O (configuration not stated),158
21,CCOP(=O)(/C=C/c1cn(-c2ccccc2)nc1OCc1ccc(OCc2nc(-c3ccco3)oc2C)c(C(=O)OC)c1)OCC,92 to 93
22,CCOC(=O)c1ccc(O)c(F)c1,79 to 80
